# From patent US20260256780A1, “COMPOSITIONS FOR INDUCING RAS GTP HYDROLYSIS AND USES THEREOF” (Revolution Medicines, Inc., priority 2023, published 2026)
# Columns and labels:
# [1] = test system: KRASG12D-mutant cell line AsPC-1; experiment: Cell viability (CellTiter-Glo) and HSA synergy model, AsPC-1; type: cell-based
# Description: (§1) Cell lines were seeded in complete growth media (RPMI-1640 or DMEM with 10% Fetal Bovine Serum and 1% Penicillin/Streptomycin) and allowed to adhere overnight in a 37° C. and 5% CO2 humidified incubator. The following day compounds were added at the indicate concentrations and incubated for a further 5 days. The number of viable cells in each well were assessed with Promega CellTiter-Glo® reagent according to manufacturer instructions. The cell viability was normalized to DMSO controls. The cell viability as a function of compound concentrations were plotted using GraphPad Prism analyzed using the Combenefit software package (Di Veroli G Y, Fornari C, Wang D, Mollard S, Bramhall J L, Richards F M, Jodrell D I. Combenefit: an interactive platform for the analysis and visualization of drug combinations. Bioinformatics. 2016 Sep. 15; 32(18):2866-8. doi: 10.1093/bioinformatics/btw230) to assess the synergy according to the highest single agent (HSA) synergy model (Borisy A A, Elliott P J, Hurst N W, Lee M S, Lehar J, Price E R, Serbedzija G, Zimmermann G R, Foley M A, Stockwell B R, Keith C T. Systematic discovery of multicomponent therapeutics. Proc Natl Acad Sci USA. 2003 Jun. 24; 100(13):7977-82. doi: 10.1073/pnas.1337088100)).
# The KRASG12D-mutant cell line AsPC-1 was grown in RPMI-1640 supplemented with 10% fetal bovine serum and 1% penicillin/streptomycin. 2500 cells were seeded in 0.15 mL in the wells of a tissue culture-treated 96-well plate. After overnight incubation, compounds were added at the indicated concentration and incubated for a further 120 hours. Cell viability was assessed with Promega CellTiter Glo reagent, and the relative cell viability was plotted as a function of the concentration of (FIG. 4A and FIG. 4G) MRTX1133 or (FIG. 4D) MRTX-282 in combination with the indicated concentration to Compound A (FIG. 4A and FIG. 4D) or Compound D (FIG. 4G), both strong hydrolyzers. The synergy between (FIG. 4B and FIG. 4H) MRTX1133 or (FIG. 4E) MRTX-282 and Compound A (FIGS. 4B and 4E) or Compound D (FIG. 4H) was assessed by the HAS synergy model. Representative points of synergistic drug combination between (FIG. 4C and FIG. 4I) MRTX1133 or (FIG. 4F) MRTX-282 and Compound A (FIG. 4C and FIG. 4F) or Compound D (FIG. 4I) are highlighted.
# The KRASG12D-mutant cell line AsPC-1 was grown in RPMI-1640 supplemented with 10% fetal bovine serum and 1% penicillin/streptomycin. 2000 cells were seeded in 0.15 mL in the wells of a tissue culture-treated 96-well plate. After overnight incubation, compounds were added at the indicated concentration and incubated for a further 120 hours. Cell viability was assessed with Promega CellTiter Glo reagent, and the relative cell viability was plotted as a function of the concentration of pan KRAS-IN-1 in combination with the indicated concentration to Compound D (FIG. 11A) or Compound C (FIG. 11D), both strong hydrolyzers. The synergy between pan KRAS-IN-1 and Compound D (FIG. 11B) or Compound C (FIG. 11E) was assessed by the HAS synergy model. Representative points of synergistic drug combination between pan KRAS-IN-1 and Compound D (FIG. 11C) or Compound C (FIG. 11F).
# [2] = test system: KRASG12C-mutant cell line MiaPaCa2; experiment: Cell viability (CellTiter-Glo) and HSA synergy model, MiaPaCa2; type: cell-based
# Description: as §1
# The KRASG12C-mutant cell line MiaPaCa2 was grown in DMEM supplemented with 10% fetal bovine serum and 1% penicillin/streptomycin. […]
# [3] = test system: KRASG12D-mutant cell line Gp2D; experiment: Cell viability (CellTiter-Glo) and HSA synergy model, Gp2D; type: cell-based
# Description: as §1
# (§2) The KRASG12D-mutant cell line Gp2D was grown in RPMI-16 40 supplemented with 10% fetal bovine serum and 1% penicillin/streptomycin. […]
# KRAS^G12C = molecular target: T1, KRAS^G12C (Homo sapiens, UniProt P01116, G12C); experiment: Covalent modification (cross-linking) of KRAS^G12C by sotorasib in MiaPaCa2 cells, immunoblot; type: cell-based
# T1 construct: endogenous in cells; host or cells: MiaPaCa2
# Description: The KRASG12C-mutant cell line MiaPaCa2 was grown in DMEM supplemented with 10% fetal bovine serum and 1% penicillin/streptomycin. 2500 cells were seeded in 0.15 mL in the wells of a tissue culture-treated 96-well plate. After overnight incubation, compounds were added at the indicated concentration and incubated for a further 120 hours. […] The density of the KRAS^G12C and KRAS^G12C-Soto. gel bands can be quantified, plotted as a function of time, and fit to a single-phase exponential model to get the rate constant for KRAS^G12C target engagement.
# [4] = test system: KRASG12D-mutant cell line HPAC; experiment: Cell viability (CellTiter-Glo) and HSA synergy model, HPAC; type: cell-based
# Description: as §1
# The KRASG12D-mutant cell line HPAC was grown in RPMI-16 40 supplemented with 10% fetal bovine serum and 1% penicillin/streptomycin. […]
# [5] = test system: KRASG12R-mutant cell line PSN1; experiment: Cell viability (CellTiter-Glo) and HSA synergy model, PSN1; type: cell-based; details: in combination with pan KRAS-IN-1, 120 hours
# Description: as §1
# The KRASG12R-mutant cell line PSN1 was grown in RPMI-1640 supplemented with 10% fetal bovine serum and 1% penicillin/streptomycin. […]
# [6] = test system: KRASG12C-mutant cell line H358; experiment: Cell viability (CellTiter-Glo) and HSA synergy model, H358; type: cell-based; details: in combination with pan KRAS-IN-1, 120 hours
# Description: as §1
# The KRASG12C-mutant cell line H358 was grown in RPMI-1640 supplemented with 10% fetal bovine serum and 1% penicillin/streptomycin. […]
# [7] = test system: KRASG12V-mutant cell line Capan-2; experiment: Cell viability (CellTiter-Glo) and HSA synergy model, Capan-2; type: cell-based; details: in combination with pan KRAS-IN-1, 120 hours
# Description: as §1
# The KRASG12V-mutant cell line Capan-2 was grown in RPMI-1640 supplemented with 10% fetal bovine serum and 1% penicillin/streptomycin. […]
# [8] = test system: RAS wild-type cell line, HaCat; experiment: Cell viability (CellTiter-Glo) and HSA synergy model, HaCat control; type: cell-based, human
# Description: as §1, §2
# [9] = AsPC-1, in combination with MRTX1133, 120 hours
# [10] = in combination with MRTX1133, 120 hours
# [11] = in combination with MRTX-282, 120 hours
# [12] = AsPC-1, in combination with pan KRAS-IN-1, 120 hours
"amount of covalently-modified KRAS^G12C (KRAS^G12C-Soto.) (KRAS^G12C; MiaPaca-2 cells, sotorasib in combination with 1 or 10 μM of Compound A)",rate of covalent engagement of KRAS^G12C (rate constant for target engagement) (KRAS^G12C; combination of sotorasib and compound A compared with sotorasib alone),SMILES,"synergy on cell viability (HSA synergy model) [1, 9]","synergy on cell viability (HSA synergy model) ([1]; AsPC-1, in combination with MRTX-282, 120 hours)","synergy on cell viability (HSA synergy model) ([2]; MiaPaCa2, in combination with AMG510, 120 hours)","synergy on cell viability (HSA synergy model) ([2]; MiaPaCa2, in combination with MRTX849, 120 hours)","synergy on cell viability (HSA synergy model) [3, 10]","synergy on cell viability (HSA synergy model) [3, 11]","cross-linking efficiency of sotorasib (KRAS^G12C; MiaPaCa2 cells, 1 μM sotorasib in combination with 1 μM or 10 μM Compound A vs sotorasib alone)","synergy on cell viability (HSA synergy model) [4, 10]","synergy on cell viability (HSA synergy model) [4, 11]","synergy on cell viability (HSA synergy model) [1, 12]",synergy on cell viability (HSA synergy model) [5],synergy on cell viability (HSA synergy model) [6],synergy on cell viability (HSA synergy model) [7],synergy on cell viability (HSA synergy model) ([8]; in combination with MRTX1133),synergy on cell viability (HSA synergy model) ([8]; in combination with MRTX-282)
increased at each time point,more rapid,"CCn1c(-c2cccnc2[C@H](C)OC)c2c3cc(ccc31)[C@@H]1C[C@H]1CC[C@H](NC(=O)[C@H]1[C@H](C)[C@@H]1C)C(=O)N1CCC[C@H](N1)C(=O)OCC(C)(C)C2 (atropisomer, axis not shown) [compound 1]",synergistic,synergistic,synergistic,synergistic,synergistic,synergistic,increases in a concentration dependent manner,synergistic,synergistic,,,,,,
,,"CCn1c(-c2cc(N3CCN(C)CC3)cnc2[C@H](C)OC)c2c3cc(ccc31)CCCC[C@H](NC(=O)[C@H]1C[C@@H]1C)C(=O)N1CCC[C@H](N1)C(=O)OCC(C)(C)C2 (atropisomer, axis not shown) [compound 3]",,,,,,,,,,synergistic,synergistic,synergistic,synergistic,,
,,"CCn1c(-c2cc(N3CCN(C)CC3)cnc2[C@H](C)OC)c2c3cc(ccc31)[C@@H]1C[C@H]1CC[C@H](NC(=O)[C@H]1[C@H](C)[C@@H]1C)C(=O)N1CCC[C@H](N1)C(=O)OCC(C)(C)C2 (atropisomer, axis not shown) [compound 6]",synergistic,,,,,,,,,synergistic,synergistic,synergistic,synergistic,no synergy,no synergy
